{"source": "paper PMC3898987", "about": "(Bioorganic & Medicinal Chemistry, 2013)", "key": {"[1]": {"molecular_target": "T1, 5-HT3AB receptor, 5-HT3B subunit F130A (Homo sapiens, UniProt O95264+P46098, F123A)", "T1 sequence (P46098 24-478)": "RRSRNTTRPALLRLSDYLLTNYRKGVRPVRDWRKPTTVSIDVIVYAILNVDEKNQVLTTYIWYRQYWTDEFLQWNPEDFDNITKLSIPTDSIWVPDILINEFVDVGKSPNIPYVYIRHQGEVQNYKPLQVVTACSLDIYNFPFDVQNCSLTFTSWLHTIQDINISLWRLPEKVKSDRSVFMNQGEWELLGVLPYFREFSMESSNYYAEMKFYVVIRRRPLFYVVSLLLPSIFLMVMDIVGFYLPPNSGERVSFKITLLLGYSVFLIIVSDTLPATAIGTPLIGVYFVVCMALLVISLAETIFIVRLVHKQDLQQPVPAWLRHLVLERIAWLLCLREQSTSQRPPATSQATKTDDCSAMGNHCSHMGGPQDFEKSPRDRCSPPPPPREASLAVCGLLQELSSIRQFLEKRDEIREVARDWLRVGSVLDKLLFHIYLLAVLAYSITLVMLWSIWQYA", "T1 sequence (O95264 22-441 F123A)": "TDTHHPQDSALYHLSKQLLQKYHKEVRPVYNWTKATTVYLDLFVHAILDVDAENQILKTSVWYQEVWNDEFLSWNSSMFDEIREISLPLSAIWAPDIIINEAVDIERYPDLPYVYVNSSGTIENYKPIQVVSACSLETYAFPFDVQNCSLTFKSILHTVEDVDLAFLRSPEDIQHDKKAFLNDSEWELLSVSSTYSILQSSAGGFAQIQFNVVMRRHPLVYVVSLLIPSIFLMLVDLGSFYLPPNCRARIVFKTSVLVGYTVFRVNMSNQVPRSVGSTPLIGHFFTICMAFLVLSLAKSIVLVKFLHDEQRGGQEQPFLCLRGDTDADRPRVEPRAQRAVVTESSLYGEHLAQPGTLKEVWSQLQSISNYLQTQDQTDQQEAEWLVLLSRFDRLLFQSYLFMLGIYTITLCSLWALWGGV", "assay": "radioligand saturation binding, transfected HEK293 membranes", "experimental": "(§1) Human embryonic kidney (HEK) 293 cells were cultured on 90 mm tissue culture plates at 37 °C and 7% CO2 in a humidified atmosphere. They were grown in DMEM:F12 (Dulbecco’s Modified Eagle’s Medium/Nutrient Mix F12 (1:1)) with GlutaMAX I™ containing 10% fetal calf serum and passaged when confluent. For radioligand binding studies, cells in 90 mm dishes were transfected at 60–70% confluency using polyethyleneimine and incubated for 3–4 days before use. For FlexStation assays, transfected cells were plated on 96-well plates and incubated 1–2 days before assay. […]\n(§2) Eight-point binding assays were performed to produce saturation binding curves. […] Radioactive counts were measured using a Beckman LS6000SC liquid scintillation counter (Fullerton, California, USA).\n(§3) Data were analyzed by iterative curve fitting using GraphPad Prism v5 (San Diego, CA) according to the following equation: B=Bmax[L]^n/kdn+[L]^n where B is the amount of bound radioligand, Bmax is the maximum specific binding at equilibrium, [L] is the concentration of radioligand, Kd is the equilibrium dissociation constant of the radioligand, and n is the Hill coefficient."}, "[2]": {"molecular_target": "T1, 5-HT3AB receptor, 5-HT3B subunit F130A", "assay": "cell-based", "experimental": "Human embryonic kidney (HEK) 293 cells were cultured on 90 mm tissue culture plates at 37 °C and 7% CO2 in a humidified atmosphere. They were grown in DMEM:F12 (Dulbecco’s Modified Eagle’s Medium/Nutrient Mix F12 (1:1)) with GlutaMAX I™ containing 10% fetal calf serum and passaged when confluent. […] For FlexStation assays, transfected cells were plated on 96-well plates and incubated 1–2 days before assay.\nFluorometric studies were undertaken using a FlexStation® (Molecular Devices, Sunnyvale, CA, USA) as previously described.[11]\nFluorescence was measured every 2 s for 200 s. […] Concentration–response and inhibition curves were obtained for each mutant, and the fluorescence values were normalized to the maximal response."}, "5-HT3A receptor S163A": {"molecular_target": "T2, 5-HT3A receptor S163A (Homo sapiens, UniProt P46098, S158A)", "T2 sequence (P46098 24-478 S158A)": "T1 sequence (P46098 24-478) with S135A", "assay": "radioligand saturation binding, transfected HEK293 membranes", "settings": "[3H]-palonosetron saturation, 5-HT3A S163A, 4 °C, 24 h", "experimental": "as §1, §2, §3"}, "5-HT3A receptor S163T": {"molecular_target": "T3, 5-HT3A receptor S163T (Homo sapiens, UniProt P46098, S158T)", "T3 sequence (P46098 24-478 S158T)": "T1 sequence (P46098 24-478) with S135T", "assay": "radioligand saturation binding, transfected HEK293 membranes", "settings": "[3H]-palonosetron saturation, 5-HT3A S163T, 4 °C, 24 h", "experimental": "as §1, §2, §3"}, "[3]": {"molecular_target": "T4, 5-HT3AB receptor, 5-HT3B subunit W90C (Homo sapiens, UniProt O95264+P46098, W83C)", "T4 sequence (P46098 24-478)": "T1 sequence (P46098 24-478)", "T4 sequence (O95264 22-441 W83C)": "T1 sequence (O95264 22-441 F123A) with W62C, A102F", "assay": "radioligand saturation binding, transfected HEK293 membranes", "settings": "[3H]-palonosetron saturation, 5-HT3AB with 5-HT3B W90C, 4 °C, 24 h", "experimental": "as §1, §2, §3"}}, "note": "Numbering of substitutions follows the chain as printed."}
{"smiles": "O=C1c2cccc3c2[C@H](CCC3)CN1[C@@H]1CN2CCC1CC2", "note": "[Palonosetron]", "values": [{"measurement": "Kd", "setting": "[1]; [3H]-palonosetron saturation, 5-HT3AB with 5-HT3B F130A, 4 °C, 24 h", "value": "480 ± 30", "unit": "pM"}, {"measurement": "increase in Kd compared to wild type", "setting": "[1]; [3H]palonosetron, F130A (5-HT3B) containing heteromers vs WT 5-HT3AB", "value": "twofold"}, {"measurement": "IC50", "setting": "[2]", "value": "840 ± 110", "unit": "pM"}, {"measurement": "Kd", "setting": "5-HT3A receptor S163A", "value": "300 ± 80", "unit": "pM"}, {"measurement": "Kd", "setting": "5-HT3A receptor S163T", "value": "220 ± 50", "unit": "pM"}, {"measurement": "Kd", "setting": "[3]", "value": "340 ± 60", "unit": "pM"}]}
